The source of these data is patent publication US9725463B2, “Substituted heterocyclic compounds as CRAC modulators” (LUPIN LIMITED, priority 2013, dated 2017).

In the assay the test system is IL-2 secretion by Jurkat T cells. Description: Inhibition of IL-2 secretion. As to conditions: Homo sapiens; Jurkat T cells stimulated with PHA, 20 to 24 hours, IL-2 by ELISA. Format: cell-based. The protocol: The CRAC channel modulatory activity of the compounds were thus evaluated by measuring the secretion of IL-2 by antigen stimulated T-cells in vitro. Alternatively, such activity can also be evaluated by assay methods known to one skilled in the art.
Inhibition of IL-2 secretion: Jurkat T cells were seeded at a density of 0.5 to 1 million cells per well in RPMI medium. Test compounds from this invention were added to the cells at different concentrations. This was followed by the addition of PHA, a T cell mitogen after 10 minutes. The cells were then incubated for 20 to 24 hours in a CO2 incubator at 37° C. After incubation with the compounds, cells were centrifuged, the supernatant was collected and processed for ELISA to quantitate the amount of IL-2 secreted. A commercial ELISA kit (R&D Systems, Inc. Minneapolis, Minn., USA) was used to estimate the IL-2 concentrations. Amount of IL-2 secreted by cells stimulated with PHA was considered as a 100% maximal signal and the decrease in amount of IL-2 secreted by cells treated with the test compounds was expressed as percent inhibition of the maximal signal. The dose response data was analyzed using 4-parametric sigmoidal dose response (variable slope) curve-fit.
(An ELISA detects its analyte on a solid surface through an enzyme-linked reagent.)
In the case of `CCc1nc2c(cc1-c1ccc(NC(=O)c3c(F)cccc3F)cc1)oc(=O)n2C` [Example 37, N-(4-(5-Ethyl-3-methyl-2-oxo-2,3-dihydrooxazolo [4,5-b]pyridin-6-yl)phenyl)-2,6-difluorobenzamide], the IC50 (in general, the midpoint of a concentration-inhibition curve) was under 25 nM.
As to `Cc1cc2oc(=O)n(C)c2cc1-c1ccc(C(=O)Nc2c(F)cccc2F)s1` [Example 140, N-(2,6-Difluorophenyl)-5-(3,6-dimethyl-2-oxo-2,3-dihydrobenzo[d]oxazol-5-yl)thiophene-2-carboxamide], the IC50 was under 25 nM.
For `Cn1c(=O)oc2cc(-c3cnc(NC(=O)c4c(F)cccc4F)cn3)c(C3CC3)nc21` [Example 86, N-(5-(5-Cyclopropyl-3-methyl-2-oxo-2,3-dihydrooxazolo[4,5-b]pyridin-6-yl)pyrazin-2-yl)-2,6-difluorobenzamide], the IC50 is 25 to 50 nM.
The value for `Cc1cc2oc(=O)n(C(F)F)c2cc1-c1cnc(NC(=O)c2c(F)cccc2F)cn1` [Example 78, N-(5-(3-(Difluoromethyl)-6-methyl-2-oxo-2,3-dihydrobenzo[d]oxazol-5-yl)pyrazin-2-yl)-2,6-difluorobenzamide] was under 25 nM.
Consider `Cn1c(=O)oc2c(C3CC3)c(-c3ccc(NCc4c(F)cccc4F)cc3)ccc21` [Example 100, 7-Cyclopropyl-6-(4-((2,6-difluorobenzyl)amino)phenyl)-3-methylbenzo [d]oxazol-2(3H)-one], for which the IC50 was 25 to 50 nM.
`Cn1c(=O)oc2cc(C3CC3)c(-c3ccc(C(=O)Nc4c(F)cccc4F)s3)cc21` [Example 89, 5-(6-Cyclopropyl-3-methyl-2-oxo-2,3-dihydrobenzo[d]oxazol-5-yl)-N-(2,6-difluorophenyl) thiophene-2-carboxamide] returned an IC50 of under 25 nM.
Compound `CCc1c(-c2ccc(NC(=O)c3c(F)cccc3F)cc2)cnc2c1oc(=O)n2C` [Example 5, N-(4-(7-Ethyl-3-methyl-2-oxo-2,3-dihydrooxazolo [4,5-b]pyridin-6-yl)phenyl)-2,6-difluorobenzamide] showed an IC50 of under 25 nM.
In the case of `CCc1cc2c(cc1-c1cnc(NC(=O)c3c(F)cccc3F)cn1)OCC(=O)N2C` [Example 121, N-(5-(6-Ethyl-4-methyl-3-oxo-3,4-dihydro-2H-benzo[b][1,4]oxazin-7-yl)pyrazin-2-yl)-2,6-difluorobenzamide], the IC50 is under 25 nM.
Turning to `Cc1cc2oc(=O)n(CC3CC3)c2cc1-c1ccc(NC(=O)c2c(F)cccc2F)cc1` [Example 29, N-(4-(3-(Cyclopropylmethyl)-6-methyl-2-oxo-2,3-dihydrobenzo[d]oxazol-5-yl)phenyl)-2,6-difluorobenzamide], the IC50 lay within 25 to 50 nM.
Regarding `Cc1cc2oc(=O)n(C)c2cc1-c1ccc(C(=O)Nc2c(F)cncc2F)s1` [Example 60, N-(3,5-Difluoropyridin-4-yl)-5-(3,6-dimethyl-2-oxo-2,3-dihydrobenzo [d]oxazol-5-yl) thiophene-2-carboxamide], the IC50 was under 25 nM.
For `CN1C(=O)COc2cc(-c3ccc(NC(=O)c4c(F)cccc4F)cc3)c(C3CC3)cc21` [Example 113, N-(4-(6-Cyclopropyl-4-methyl-3-oxo-3,4-dihydro-2H-benzo[b][1,4]oxazin-7-yl)phenyl)-2,6-difluorobenzamide] the value was under 25 nM; for `CN1C(=O)COc2cc(-c3ccc(C(=O)Nc4c(F)cncc4F)cc3)c(C3CC3)cc21` [Example 119, 4-(6-Cyclopropyl-4-methyl-3-oxo-3,4-dihydro-2H-benzo[b][1,4]oxazin-7-yl)-N-(3,5-difluoropyridin-4-yl)benzamide], 100 to 500 nM; for `Cn1c(=O)oc2cc(-c3ccc(C(=O)Nc4c(F)cccc4F)s3)c(C3CC3)cc21` [Example 74, 5-(5-Cyclopropyl-3-methyl-2-oxo-2,3-dihydrobenzo [d]oxazol-6-yl)-N-(2,6-difluorophenyl) thiophene-2-carboxamide], 50 to 100 nM.
The value for `Cn1c(=O)oc2cc(C3CC3)c(-c3ccc(NC(=O)c4c(F)cccc4F)nc3)cc21` [Example 83, N-(5-(6-Cyclopropyl-3-methyl-2-oxo-2,3-dihydrobenzo [d]oxazol-5-yl)pyridin-2-yl)-2,6-difluorobenzamide] was 25 to 50 nM; that for `Cc1cc2oc(=O)n(C)c2cc1-c1ccc(NC(=O)c2c(F)cccc2F)cc1` [Example 27, N-(4-(3,6-Dimethyl-2-oxo-2,3-dihydrobenzo [d]oxazol-5-yl)phenyl)-2,6-difluorobenzamide] was under 25 nM; that for `Cn1c(=O)oc2c(C3CC3)c(-c3ccc(NC(=O)c4c(F)cccc4F)cc3)ccc21` [Example 23, N-(4-(7-Cyclopropyl-3-methyl-2-oxo-2,3-dihydrobenzo[d]oxazol-6-yl)phenyl)-2,6-difluorobenzamide] was 25 to 50 nM.
For `CCc1cc2oc(=O)n(C)c2cc1-c1ccc(C(=O)Nc2c(F)cncc2F)cc1` [Example 92, N-(3,5-Difluoropyridin-4-yl)-4-(6-ethyl-3-methyl-2-oxo-2,3-dihydrobenzo [d]oxazol-5-yl) benzamide] the value was under 25 nM; for `CCc1cc2oc(=O)n(C)c2cc1-c1cnc(NC(=O)c2c(F)cccc2F)cn1` [Example 80, N-(5-(6-Ethyl-3-methyl-2-oxo-2,3-dihydrobenzo[d]oxazol-5-yl)pyrazin-2-yl)-2,6-difluoro benzamide], 50 to 100 nM; for `Cc1cc2oc(=O)n(C)c2cc1-c1ccc(C(=O)Nc2c(Cl)cncc2Cl)s1` [Example 61, N-(3,5-Dichloropyridin-4-yl)-5-(3,6-dimethyl-2-oxo-2,3-dihydrobenzo [d]oxazol-5-yl)thiophene-2-carboxamide], 25 to 50 nM.
Compound `Cc1cc2oc(=O)n(C)c2cc1-c1ccc(NC(=O)c2c(C)cccc2F)cc1` [Example 49, N-(4-(3,6-Dimethyl-2-oxo-2,3-dihydrobenzo [d]oxazol-5-yl)phenyl)-2-fluoro-6-methylbenzamide] yielded an IC50 of 25 to 50 nM.
`CCc1cc2oc(=O)n(C)c2cc1-c1ccc(NC(=O)c2c(F)cccc2F)nc1` [Example 82, N-(5-(6-Ethyl-3-methyl-2-oxo-2,3-dihydrobenzo[d]oxazol-5-yl)pyridin-2-yl)-2,6-difluoro benzamide]: the IC50 was under 25 nM.
`CN1C(=O)COc2c1ccc(-c1cnc(NC(=O)c3c(F)cccc3F)cn1)c2C1CC1` [Example 109, N-(5-(8-Cyclopropyl-4-methyl-3-oxo-3,4-dihydro-2H-benzo[b][1,4]oxazin-7-yl)pyrazin-2-yl)-2,6-difluorobenzamide] registered an IC50 of 50 to 100 nM.
`Cn1c(=O)oc2cc(C3CC3)c(-c3ccc(NC(=O)c4c(F)cccc4F)cc3)cc21` [Example 94, N-(4-(6-Cyclopropyl-3-methyl-2-oxo-2,3-dihydrobenzo [d]oxazol-5-yl)phenyl)-2,6-difluorobenzamide] gave an IC50 of under 25 nM.
Regarding `Cc1c(-c2ccc(NC(=O)c3c(F)cccc3F)cc2)ccc2c1oc(=O)n2C` [Example 14, N-(4-(3,7-Dimethyl-2-oxo-2,3-dihydrobenzo [d]oxazol-6-yl)phenyl)-2,6-difluorobenzamide], the half-maximal inhibitory concentration (IC50) fell in the range of 50 to 100 nM.
`Cn1c(=O)oc2cc(-c3ccc(NC(=O)c4c(F)cccc4F)cc3)c(C3CC3)nc21` [Example 36, N-(4-(5-Cyclopropyl-3-methyl-2-oxo-2,3-dihydrooxazolo [4,5-b]pyridin-6-yl)phenyl)-2,6-difluorobenzamide] displayed an IC50 of under 25 nM.
Turning to `CCc1cc2c(cc1-c1cnc(NC(=O)c3c(F)cccc3F)cn1)N(C)C(=O)CO2` [Example 133, N-(5-(7-Ethyl-4-methyl-3-oxo-3,4-dihydro-2H-benzo[b][1,4]oxazin-6-yl)pyrazin-2-yl)-2,6-difluorobenzamide], the concentration for half-maximal inhibition (IC50) fell in the range of 100 to 500 nM.
`Cc1cc2c(cc1-c1ccc(NC(=O)c3c(F)cccc3F)cc1)OCC(=O)N2C` [Example 123, N-(4-(4,6-Dimethyl-3-oxo-3,4-dihydro-2H-benzo[b][1,4]oxazin-7-yl)phenyl)-2,6-difluorobenzamide] displayed an IC50 of under 25 nM.
On to `Cc1cc2oc(=O)n(C(F)F)c2cc1-c1ccc(NC(=O)c2c(F)cccc2F)cn1` [Example 76, N-(6-(3-(Difluoromethyl)-6-methyl-2-oxo-2,3-dihydrobenzo[d]oxazol-5-yl)pyridin-3-yl)-2,6-difluorobenzamide], for which the IC50 lay in the range of 25 to 50 nM.
In turn, `CCc1cc2oc(=O)n(C)c2cc1-c1ccc(NC(=O)c2c(F)cccc2F)cc1` [Example 85, N-(4-(6-Ethyl-3-methyl-2-oxo-2,3-dihydrobenzo [d]oxazol-5-yl)phenyl)-2,6-difluorobenzamide] displayed an IC50 of under 25 nM.
In the case of `CCc1cc2c(cc1-c1ccc(NC(=O)c3c(F)cccc3F)cc1)oc(=O)n2C` [Example 43, N-(4-(5-Ethyl-3-methyl-2-oxo-2,3-dihydrobenzo[d]oxazol-6-yl)phenyl)-2,6-difluorobenzamide], the IC50 was under 25 nM.
For the compound `CN1C(=O)COc2cc(C3CC3)c(-c3ccc(NC(=O)c4c(F)cccc4F)cc3)cc21` [Example 131, N-(4-(7-Cyclopropyl-4-methyl-3-oxo-3,4-dihydro-2H-benzo[b][1,4]oxazin-6-yl)phenyl)-2,6-difluorobenzamide], the IC50 lay within 50 to 100 nM.
Regarding `Cc1cc2oc(=O)n(C)c2cc1-c1ccc(NCc2c(F)cccc2F)cc1` [Example 55, 5-(4-((2,6-Difluorobenzyl)amino)phenyl)-3,6-dimethyl benzo[d] oxazol-2(3H)-one], the IC50 is under 25 nM.
